Measurements: ChEMBL document CHEMBL4011586 (Eur J Med Chem, 2017)
pIC50: −log10 of the molar value. Active and inactive are the calls of the source. The rule behind the calls is not given here.

Key:
[1] = target: T1, Amine oxidase [flavin-containing] B (Homo sapiens, UniProt P27338); experiment: Inhibition of recombinant human MAO-B expressed in baculovirus infected BTI insect cells assessed as reduction in H2O2 production using p-tyramine as substrate pretreated for 30 mins followed by substrate addition after 30 mins by Amplex red reagent based assay
T1 sequence (P27338 whole entry): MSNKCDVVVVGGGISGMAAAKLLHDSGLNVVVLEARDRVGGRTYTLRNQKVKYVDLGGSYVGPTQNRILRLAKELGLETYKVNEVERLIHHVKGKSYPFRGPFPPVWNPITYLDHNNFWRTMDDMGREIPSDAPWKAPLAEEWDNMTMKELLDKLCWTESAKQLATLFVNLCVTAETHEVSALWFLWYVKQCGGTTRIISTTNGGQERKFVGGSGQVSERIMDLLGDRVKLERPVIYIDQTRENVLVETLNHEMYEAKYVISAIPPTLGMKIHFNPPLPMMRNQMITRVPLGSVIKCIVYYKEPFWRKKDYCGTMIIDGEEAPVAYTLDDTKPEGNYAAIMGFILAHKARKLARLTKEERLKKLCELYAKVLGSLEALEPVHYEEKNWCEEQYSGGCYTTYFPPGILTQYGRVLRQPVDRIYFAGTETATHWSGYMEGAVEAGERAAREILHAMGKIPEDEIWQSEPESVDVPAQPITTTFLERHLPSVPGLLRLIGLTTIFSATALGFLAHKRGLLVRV

[2] = species on record: Homo sapiens; experiment: Selectivity index, ratio of IC50 for recombinant human MAO-A to IC50 for recombinant human MAO-B
[3] = target: T2, Amine oxidase [flavin-containing] A (Homo sapiens, UniProt P21397); experiment: Inhibition of recombinant human MAO-A expressed in baculovirus infected BTI insect cells assessed as reduction in H2O2 production using p-tyramine as substrate pretreated for 30 mins followed by substrate addition after 30 mins by Amplex red reagent based assay
T2 sequence (P21397 whole entry): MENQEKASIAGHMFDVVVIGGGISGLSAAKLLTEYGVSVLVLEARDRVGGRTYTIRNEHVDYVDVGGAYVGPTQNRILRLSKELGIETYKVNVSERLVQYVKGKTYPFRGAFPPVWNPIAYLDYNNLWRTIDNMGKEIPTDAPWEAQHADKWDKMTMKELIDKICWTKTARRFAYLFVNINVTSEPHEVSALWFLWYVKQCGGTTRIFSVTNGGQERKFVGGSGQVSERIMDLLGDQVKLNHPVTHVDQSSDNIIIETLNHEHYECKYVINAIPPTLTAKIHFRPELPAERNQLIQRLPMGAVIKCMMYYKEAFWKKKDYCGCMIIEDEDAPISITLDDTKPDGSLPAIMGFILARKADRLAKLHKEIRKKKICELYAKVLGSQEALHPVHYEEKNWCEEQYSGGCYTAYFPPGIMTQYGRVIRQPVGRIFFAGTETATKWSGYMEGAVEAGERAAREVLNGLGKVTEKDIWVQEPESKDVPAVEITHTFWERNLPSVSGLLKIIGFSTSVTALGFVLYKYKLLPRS

[4] = target: T1, Amine oxidase [flavin-containing] B; experiment: Reversible inhibition of recombinant human MAO-B expressed in baculovirus infected BTI insect cells assessed as reduction in H2O2 production using p-tyramine as substrate at 3 times IC50 pretreated up to 60 mins followed by substrate addition after 30 mins by Amplex red reagent based assay; conditions: 0.5 h
[5] = Cytotoxicity against rat PC12 cells assessed as cell viability at 50 uM after 24 hrs by WST-1 assay relative to control; assay type: cell-based, PC-12; conditions: read-out: Activity
[6] = tested on: PC-12; experiment: Neuroprotective activity against H2O2-induced toxicity in rat PC12 cells at 50 to 100 uM pretreated followed by H2O2 challenge measured after 24 hrs; assay type: functional, cell-based
[7] = Cytotoxicity against human SH-SY5Y cells assessed as cell viability at 50 uM after 24 hrs by WST-1 assay relative to control; assay type: cell-based; conditions: read-out: Activity
[8] = tested on: PC-12; experiment: Neuroprotective activity against rotenone-induced toxicity in rat PC12 cells at 50 to 100 uM pretreated followed by rotenone challenge measured after 24 hrs; assay type: functional, cell-based
[9] = Cytotoxicity against rat PC-12 Adh cells assessed as cell viability at 50 uM after 24 hrs by WST-1 assay relative to control; assay type: cell-based; conditions: read-out: Activity
[10] = target: T1, Amine oxidase [flavin-containing] B; experiment: (§1) Competitive inhibition of recombinant human MAO-B expressed in baculovirus infected BTI insect cells assessed as reduction in H2O2 production at 11 to 44 nM using varying levels of p-tyramine as substrate pretreated up to 60 mins followed by substrate addition measured after 30 mins by Line-weaver burk plot analysis; conditions: 0.5 h
[11] = target: T1, Amine oxidase [flavin-containing] B; experiment: as §1, with “4” for “11”, “16” for “44”; conditions: 0.5 h

pIC50 [1] | Ratio IC50 [2] | pIC50 [3] | inhibition (INH) [4] | inhibition (INH) [10] | inhibition (INH) [11] | Structure (SMILES) | viability at 24 h, 50 µM [5] [%] | Activity [6] | viability at 24 h, 50 µM [7] [%] | Activity [8] | viability at 24 h, 50 µM [9] [%]
6.55 | > 357 | < 4.00 | – | – | – | O=C1COC(c2ccc(NC(=O)c3cccc(Cl)c3)cc2)=NN1 | – | – | – | – | –
7.60 | > 4000 | < 4.00 | – | – | – | Cc1cccc(/N=N/c2ccc(C3=NNC(=O)CO3)cc2)c1 | – | – | – | – | –
5.37 | > 24 | < 4.00 | – | – | – | N#CCCN1N=C(c2ccc(NC(=O)c3cccc(Cl)c3)cc2)OCC1=O | – | – | – | – | –
7.92 | > 8330 | < 4.00 | – | – | – | O=C1COC(c2ccc(/N=N/c3cccc(F)c3)cc2)=NN1 | – | – | – | – | –
6.76 | > 578 | < 4.00 | – | – | – | O=C1COC(c2ccc(/C=C/c3cccc(Cl)c3)cc2)=NN1 | – | – | – | – | –
< 5.00 | – | < 4.00 | – | – | – | O=C1COC(c2ccc(NS(=O)(=O)c3cccc(Cl)c3)cc2)=NN1 | – | – | – | – | –
6.59 | > 385 | < 4.00 | Active | – | – | O=C1COC(c2ccc(/N=C/c3cccc(Cl)c3)cc2)=NN1 | > 90 | inactive | > 90 | inactive | > 90
6.54 | > 344 | < 4.00 | – | – | – | O=C1COC(c2ccc(C(=O)Nc3cccc(Cl)c3)cc2)=NN1 | – | – | – | – | –
5.69 | > 49 | < 4.00 | – | – | – | CN1N=C(c2ccc(/N=C/c3cccc(Cl)c3)cc2)OCC1=O | – | – | – | – | –
7.66 | > 4540 | < 4.00 | Active | Active | – | O=C1COC(c2ccc(/C=C/c3cccc(F)c3)cc2)=NN1 | > 90 | inactive | > 90 | inactive | > 90
8.40 | > 25000 | < 4.00 | Active | – | Active | O=C1COC(c2ccc(/N=N/c3ccccc3)cc2)=NN1 | > 90 | inactive | > 90 | inactive | > 90
6.47 | > 296 | < 4.00 | – | – | – | Cc1cccc(/C=C/c2ccc(C3=NNC(=O)CO3)cc2)c1 | – | – | – | – | –
< 5.00 | – | < 4.00 | – | – | – | O=C1COC(c2ccc(/N=C/c3ccccc3)cc2)=NN1 | – | – | – | – | –
6.27 | > 185 | < 4.00 | – | – | – | O=C1COC(c2ccc(/C=C/c3ccc(Cl)cc3)cc2)=NN1 | – | – | – | – | –
5.90 | > 78 | < 4.00 | Active | – | – | Cc1cccc(/C=N/c2ccc(C3=NNC(=O)CO3)cc2)c1 | > 90 | inactive | > 90 | inactive | > 90
6.41 | > 255 | < 4.00 | – | – | – | O=C1COC(c2ccc(/N=N/c3ccc(Cl)cc3)cc2)=NN1 | – | – | – | – | –
5.43 | > 27 | < 4.00 | – | – | – | NC(=O)CN1N=C(c2ccc(NC(=O)c3cccc(Cl)c3)cc2)OCC1=O | – | – | – | – | –
6.36 | > 231 | < 4.00 | – | – | – | O=C1COC(c2ccc(/N=C/c3ccc(Cl)cc3)cc2)=NN1 | – | – | – | – | –
6.78 | > 606 | < 4.00 | – | – | – | O=C1COC(c2ccc(/C=C/c3ccccc3)cc2)=NN1 | – | – | – | – | –
5.57 | > 37 | < 4.00 | – | – | – | O=C1COC(c2ccc(NCc3cccc(Cl)c3)cc2)=NN1 | – | – | – | – | –
6.54 | > 348 | < 4.00 | – | – | – | O=C1COC(c2ccc(/N=N/c3cccc(Cl)c3)cc2)=NN1 | – | – | – | – | –
< 5.00 | – | < 4.00 | – | – | – | CCN1N=C(c2ccc(/C=C/c3cccc(Cl)c3)cc2)OCC1=O | – | – | – | – | –
6.26 | > 182 | < 4.00 | – | – | – | O=C1COC(c2ccc(/C=N/c3cccc(Cl)c3)cc2)=NN1 | – | – | – | – | –
5.82 | > 65 | < 4.00 | – | – | – | O=C1COC(c2ccc(/N=C/c3cccc(F)c3)cc2)=NN1 | – | – | – | – | –
6.26 | > 18 | < 5.00 | – | – | – | O=C1COC(c2ccc(/C=N/Nc3cccc(Cl)c3)cc2)=NN1 | – | – | – | – | –
5.54 | > 34 | < 4.00 | – | – | – | O=C1COC(c2ccc(NC(=O)Nc3cccc(Cl)c3)cc2)=NN1 | – | – | – | – | –
